Experimental data from publication PMC10598831 (JACS Au, 2023).

How the values were obtained:
[1] = target: T1, GDI1 (Homo sapiens, UniProt P31150); assay: GDI1 level by Western blot, AsPC-1 cells; assay type: cell-based; details: up to 10 μM
T1 sequence (P31150 1-447): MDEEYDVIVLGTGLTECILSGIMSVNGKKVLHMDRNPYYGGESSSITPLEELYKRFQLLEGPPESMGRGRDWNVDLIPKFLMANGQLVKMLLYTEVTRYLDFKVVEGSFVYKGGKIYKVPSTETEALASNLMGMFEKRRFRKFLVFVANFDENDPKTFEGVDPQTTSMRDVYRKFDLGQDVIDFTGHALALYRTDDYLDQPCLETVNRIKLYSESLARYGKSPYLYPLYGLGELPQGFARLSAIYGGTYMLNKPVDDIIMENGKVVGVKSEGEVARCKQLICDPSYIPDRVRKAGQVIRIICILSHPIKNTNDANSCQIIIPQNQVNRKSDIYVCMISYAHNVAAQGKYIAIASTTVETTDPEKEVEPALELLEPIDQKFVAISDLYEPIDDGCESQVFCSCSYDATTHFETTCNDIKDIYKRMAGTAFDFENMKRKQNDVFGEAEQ

[2] = target: T2, GDI2 (Homo sapiens, UniProt P50395); assay: Biolayer interferometry; assay type: binding
T2 sequence (P50395 1-445): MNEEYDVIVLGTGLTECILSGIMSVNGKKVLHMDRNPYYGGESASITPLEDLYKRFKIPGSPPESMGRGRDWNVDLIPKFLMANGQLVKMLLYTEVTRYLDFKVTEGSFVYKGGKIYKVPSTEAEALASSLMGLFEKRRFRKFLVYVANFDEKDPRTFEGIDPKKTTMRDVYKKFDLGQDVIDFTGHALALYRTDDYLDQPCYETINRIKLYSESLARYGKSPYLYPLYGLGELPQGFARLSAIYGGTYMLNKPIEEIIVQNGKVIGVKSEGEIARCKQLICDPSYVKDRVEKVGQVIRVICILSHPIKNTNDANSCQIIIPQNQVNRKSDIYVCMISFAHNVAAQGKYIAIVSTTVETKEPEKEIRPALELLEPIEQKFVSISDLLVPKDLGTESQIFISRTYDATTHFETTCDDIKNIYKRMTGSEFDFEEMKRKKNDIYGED

[3] = system: PDAC PDX tumors; assay: Pancreatic adenocarcinoma PDX model; assay type: in vivo, mouse
[4] = target: T2, GDI2; assay: GDI2 degradation by Western blot, AsPC-1 cells; assay type: cell-based
[5] = system: AsPC-1 xenograft; assay: AsPC-1 pancreatic carcinoma xenograft model; assay type: in vivo, mouse

Cc1cc(C)cc(COc2cc3c(cc2OCc2cc(C)cc(C)c2)[C@H]2C[C@](O)(Cc4cn(CCOCCOCCOCCNC(=O)[C@@H](CC(C)C)NC(=O)[C@@H](O)[C@H](N)Cc5ccccc5)nn4)C[C@H](C)N2CC3)c1 [Compound 21]
Effect on GDI1 protein level [1]: without affecting the GDI1 protein level | Kd [2]: 23.9 µM | Toxicity ([3]; 18 days of treatment): without significant toxicity | PDAC tumor growth ([3]; (+)-37 40 mg/kg ip., 21 15 mg/kg ip., every 3 days, 18 days): successfully suppressed PDAC tumor growth | Dmax ([4]; ASPC1, read-out: GDI2 Dmax): 84.2% | GDI2 depleted ([4]; AsPC-1 cells, after 9 h of treatment): > 70% | DC50 ([4]; read-out: GDI2 DC50, AsPC-1 cells, 0.63–10 μM, 24 h, n = 3): 1.48 µM | GDI2 not restored in tumor tissue ([5]; 15 mg/kg ip., 72 h post final injection, Western blot): more than 90% | Toxicity (body weight, histopathology of major organs) ([5]; 18 days of treatment): No significant signs of toxicity | Tumor growth vs vehicle ([5]; (+)-37 25 or 40 mg/kg ip., 21 15 mg/kg ip., every 3 days, 18 days): significantly attenuated tumor growth
